Assay results taken from paper PMC6273932, “Xanthium strumarium as an Inhibitor of α-Glucosidase, Protein Tyrosine Phosphatase 1β, Protein Glycation and ABTS^+ for Diabetic and Its Complication” (Molecules, 2016).
pIC50: −log10 of the molar value. In brackets after ≈: the same amount, converted by molar mass.

Columns and labels:
[1] = test system: recombinant aldose reductase; conditions: compounds from X. strumarium; cited from earlier work
[2] = test system: rat lens aldose reductase; conditions: compounds from X. strumarium; cited from earlier work
[3] = ABTS^+ radical scavenging activity assay
Experimental: The method described by Li et al. was used with slight modifications. ABTS^+ diammonium salt (2 mM) and potassium persulfate (3.5 mM) were mixed, diluted in distilled water and kept in the dark at room temperature for 24 h before use. After addition of ABTS^+ solution to 10 µL of antioxidant, measurements were recorded at 10 min post reaction. The percentage inhibition of absorbance at 750 nm was calculated and plotted as a function of concentration of antioxidants. Trolox was used as positive control.

[4] = test system: advanced glycation end products (AGEs); assay: AGEs inhibitory activity, bovine serum albumin-methylglyoxal assay (fluorescence); assay type: biochemical
Experimental: The modified procedure of Lee et al. was followed. Bovine serum albumin (10 mg/mL) was incubated with 5 mM methylglyoxal in sodium phosphate buffer (100 mM; pH 7.4). […] All of the reagents and samples were […] by filtration through 0.2 μm membrane filters and the mixture was incubated at 37 °C for 7 days. The fluorescence intensity was measured at an excitation wavelength of 330 nm and an emission wavelength of 410 nm with a LS50B fluorescence spectrometer Perkin-Elmer Ltd., (Buckinghamshire, FLS, UK). Aminoguanidine was also tested as a known inhibitor.

[5] = molecular target: T1, protein tyrosine phosphatase 1β (PTP1β) (Homo sapiens, UniProt P18031); assay: PTP1β inhibitory activity assay (colorimetric kit, IR5 phosphopeptide substrate); assay type: biochemical
T1 sequence (P18031 1-322 limits assumed): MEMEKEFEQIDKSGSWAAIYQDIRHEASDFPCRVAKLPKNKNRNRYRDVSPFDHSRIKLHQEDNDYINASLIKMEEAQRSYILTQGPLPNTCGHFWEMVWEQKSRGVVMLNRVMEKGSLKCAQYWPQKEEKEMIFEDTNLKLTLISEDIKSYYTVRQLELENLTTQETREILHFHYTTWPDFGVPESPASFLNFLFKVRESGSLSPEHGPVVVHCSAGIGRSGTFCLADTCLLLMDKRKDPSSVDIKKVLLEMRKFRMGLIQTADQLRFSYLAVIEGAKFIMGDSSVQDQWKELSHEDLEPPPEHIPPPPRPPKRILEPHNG
Experimental: PTP1β tyrosine phosphatase drug discovery kit is a colorimetric, non-radioactive assay designed to measure the phosphatase activity of purified PTP1β. […] Following incubation at 37 °C for 30 min, the reaction was terminated with the BIOMOL RED^TM reagent. The amount of […] produced was estimated by measuring the absorbance at 620 nm. The non-enzymatic hydrolysis of the IR5 substrate was corrected by measuring the increase in absorbance at 620 nm obtained in the absence of PTP1β enzyme.

[6] = test system: α-glucosidase from Saccharomyces sp.; assay: α-glucosidase inhibitory activity assay (pNPG substrate, absorbance 405 nm); assay type: biochemical
Excerpt: ^1H- and ^13C-NMR spectra and correlation NMR spectra such as COSY, HMBC, HMQC, and DEPT were obtained from a Bruker Avance DPX 400 (or 600) spectrometer (Berlin, Germany). These were obtained at operating frequencies of 400 MHz (^1H) and 100 (or 150) MHz (^13C) with CD3OD, (CD3)2SO, (CD3)2CO, or D2O and TMS was used as an internal standard; chemical shifts were reported in δ values. The α-glucosidase from Saccharomyces sp. (SSG) was purchased from Wako Pure Chemical Industries Ltd (Tokyo, Japan). […] All other chemicals and reagents used were of analytical grade.
The α-glucosidase inhibitory activity of the extracts and fractions was determined using a modified procedure reported method with a slight modification. The α-glucosidase activity was measured using the substrate p-nitrophenyl-α-D-glucopyranoside (pNPG), which is hydrolyzed by α-glucosidase to release the product p-nitrophenol, a colorant that can be monitored at 405 nm. The initial concentration of the enzyme solution was 0.62 unit/mL in 0.1 M phosphate buffer (pH 6.9) and the initial concentration of the substrate solution was 2 mM in the same phosphate buffer. The enzyme solution was mixed with water and the samples or controls in a clear 96-well microplate (flat bottom) and the reaction was initiated by addition of the substrate to the solution. The plates were incubated at 37 °C for 5 min and the reaction was terminated by the addition of 0.1 M Na2CO3. […] Background absorbance was determined using a non-enzyme control microplate containing the buffer and was subtracted from the absorbance of the samples and controls.

AGEs = test system: AGEs; parameters: method as in PMID 20118563; conditions: isolated from the extracts of Erigeron annuus; cited from earlier work
[7] = isolated compounds, - is no activity

COC(=O)[C@]1(O)C[C@@H](OC(=O)/C=C/c2ccc(O)c(O)c2)[C@@H](O)[C@H](OC(=O)/C=C/c2ccc(O)c(O)c2)C1 [compound 6, methyl-3,5-di-O-caffeoylquinic acid]
recombinant aldose reductase inhibitory activity [1]: strong | rat lens aldose reductase inhibitory activity [2]: strong | Inhibition (%) ABTS^+ ([3]; 0.33 μg/mL): 7.49% | Inhibition (%) ABTS^+ ([3]; 1.66 μg/mL): 33.69% | Inhibition (%) ABTS^+ ([3]; 8.33 μg/mL): 98.31% | pIC50 ([3]; isolated compounds): 5.22 | IC50 ABTS^+ radical scavenging [3, 7]: 3.20 ± 0.28 µg/mL (≈ 6.03 µM) | fold higher inhibition than positive control trolox (ABTS^+) ([3]; ratio of IC50 (μM) values): 4.93 fold | Inhibition (%) AGEs ([4]; 10 μg/mL): 24.24% | Inhibition (%) AGEs ([4]; 20 μg/mL): 34.59% | Inhibition (%) AGEs ([4]; 50 μg/mL): 54.77% | Inhibition (%) AGEs ([4]; 100 μg/mL): 89.47% | pIC50 ([4]; isolated compounds): 4.08 | IC50 AGEs [4, 7]: 43.96 ± 3.89 µg/mL (≈ 82.9 µM) | fold higher inhibition than positive control aminoguanidine (AGEs) ([4]; ratio of IC50 (μM) values): 17.03 fold | inhibition at 1 µg/mL ([5]; 1 μg/mL): 24% | inhibition at 2.5 µg/mL ([5]; 2.5 μg/mL): 30.7% | inhibition at 5 µg/mL ([5]; 5 μg/mL): 50% | inhibition at 10 µg/mL ([5]; 10 μg/mL, - is no activity): 82.5% | fold higher inhibition than positive control sumarin (PTP1β) ([5]; ratio of IC50 (μM) values): 2.93 fold | Inhibition (%) α-glucosidase ([6]; 2.5 μg/mL): 22.63% | Inhibition (%) α-glucosidase ([6]; 5 μg/mL): 40.00% | Inhibition (%) α-glucosidase ([6]; 12.5 μg/mL): 59.11% | Inhibition (%) α-glucosidase ([6]; 25 μg/mL): 96.50% | pIC50 ([6]; isolated compounds): 4.73 | IC50 α-glucosidase [6, 7]: 9.78 ± 0.79 µg/mL (≈ 18.4 µM) | fold higher inhibition than positive control acarbose (α-glucosidase) ([6]; ratio of IC50 (μM) values): 31.74 fold | inhibitory activity on AGEs (AGEs): strong inhibitory activity
